Test results reported in patent US20220330549A1, “USE OF N-BENZYLBENZAMIDE-BASED COMPOUND AS HERBICIDE” (Northwest A&F University, priority 2020, published 2022).

How the values were obtained:
Type in all cases: in vivo
[1] = test system: Barnyard grass; assay: Herbicidal activity test for indoor pre-emergence soil treatment; parameters: key: level 1-9; higher = more weed remaining vs blank control; conditions: 150 g a.i./ha, visual inspection 21 days after treatment
Outline: (§1)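 Pre-emergence test following NY/T 1155.3-2006: weed seeds were sown in moistened neutral sandy loam (≤2% organic matter) and covered with 0.5–2.0 cm of soil. After 24 h, the soil was sprayed with a 10% EC diluted in water at 150 g(a.i.)/ha. Damage was scored visually on a 1–9 scale at 21 days.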

[2] = test system: Piemarker; assay: as above; parameters: key: level 1-9; higher = more weed remaining vs blank control; conditions: 150 g a.i./ha, visual inspection 21 days after treatment
Outline: as §1

[3] = test system: green bristlegrass; assay: as above; parameters: key: level 1-9; higher = more weed remaining vs blank control; conditions: 150 g a.i./ha, visual inspection 21 days after treatment
Outline: as §1

[4] = test system: Gramineae; assay: Post-emergence herbicidal activity test in a paddy field; parameters: key: level scale; higher level = more weed left vs blank control; conditions: 150 g a.i./ha (penoxsulam control 250 g(a.i.)/h)
Outline: (§2)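 Efficacy was visually estimated 15 and 30 days after spraying, grading weed coverage relative to an untreated neighbouring plot (level 2 = 0 to 2.5%, level 9 = 67.6 to 100%). Treatments were 150 g(a.i.)/ha from 10% emulsifiable concentrates applied at the 4-5 leaf rice stage, four repeats of 50 m^2 each.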

[5] = test system: Cyperaceae; assay: as above; parameters: key: level scale; higher level = more weed left vs blank control; conditions: 150 g a.i./ha (penoxsulam control 250 g(a.i.)/h)
Outline: as §2

[6] = test system: Broadleaf weed; assay: as above; parameters: key: level scale; higher level = more weed left vs blank control; conditions: 150 g a.i./ha (penoxsulam control 250 g(a.i.)/h)
Outline: as §2

[7] = test system: Humulus scandens; assay: Herbicidal activity test for indoor pre-emergence soil treatment; conditions: 150 g a.i./ha, visual inspection 21 days after treatment
Outline: as §1

[8] = test system: Amaranthus retroflexus; assay: as above; parameters: key: 1-9 levels; higher = more weed remaining vs blank control; conditions: 150 g a.i./ha, visual inspection 21 days after treatment
Outline: as §1

[9] = test system: Digitaria sanguinalis; assay: as above; parameters: key: 1-9 levels; higher = more weed remaining vs blank control; conditions: 150 g a.i./ha, visual inspection 21 days after treatment
Outline: as §1

[10] = test system: Amaranthus retroflexus; assay: Herbicidal activity test for indoor post-emergence spraying on stems and leaves; parameters: key: grade level by weed remaining vs blank control, e.g. 5 = 10.1-15%; conditions: 150 g a.i./ha, visual inspection 21 days after treatment
Outline: (§3)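 Post-emergence stem and leaf spray in an indoor test following NY/T 1155.4-2006, with weeds sown and grown in a greenhouse. Effect scored visually 21 days after treatment as graded levels, each level set by the percentage of weed remaining relative to the blank control area.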

[11] = test system: Humulus scandens; assay: as above; parameters: key: grade level by weed remaining vs blank control, e.g. 5 = 10.1-15%; conditions: 150 g a.i./ha, visual inspection 21 days after treatment
Outline: as §3

[12] = test system: Barnyard grass; assay: as above; parameters: key: grade level by weed remaining vs blank control, e.g. 5 = 10.1-15%; conditions: 150 g a.i./ha, visual inspection 21 days after treatment
Outline: as §3

[13] = test system: Piemarker; assay: as above; parameters: key: grade level by weed remaining vs blank control, e.g. 5 = 10.1-15%; conditions: 150 g a.i./ha, visual inspection 21 days after treatment
Outline: as §3

[14] = test system: green bristlegrass; assay: as above; parameters: key: grade level by weed remaining vs blank control, e.g. 5 = 10.1-15%; conditions: 150 g a.i./ha, visual inspection 21 days after treatment
Outline: as §3

[15] = test system: Digitaria sanguinalis; assay: as above; parameters: key: grade level by weed remaining vs blank control, e.g. 5 = 10.1-15%; conditions: 150 g a.i./ha, visual inspection 21 days after treatment
Outline: as §3

[16] = test system: Amaranthus retroflexus; assay: Field test for weed control in a corn field; conditions: 150 g a.i./ha, 30 days after treatment
Outline: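 Field efficacy trial in a corn field following GB/T 17980.42-2000. Test compounds were formulated as 10% emulsifiable concentrates, diluted in water and sprayed post-emergence when corn had 2 to 5 leaves. Each treatment covered 20 m^2 with 4 replicates. A 25% mesotrione oil dispersion served as control. Damage to Amaranthus retroflexus was rated on a 1-9 scale against untreated blank plots.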

[17] = test system: Convolvulus arvensis; assay: Field test for weed control in a corn field; conditions: 150 g a.i./ha, after treatment
Outline: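 Field trial of weed control against Convolvulus arvensis in corn, run following GB/T 17980.42-2000. Test agents were formulated as 10% emulsifiable concentrates and sprayed in water at 150 g(a.i.)/ha when corn plants had 2 to 5 leaves. Each treatment was replicated 4 times on 20 m^2 plots, and 25% mesotrione oil dispersion served as the control agent.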

[18] = test system: Barnyard grass; assay: Field test for weed control in a corn field; conditions: 150 g a.i./ha, 30 days after treatment
Outline: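 Corn-field efficacy trial following GB/T 17980.42-2000. Test compounds were formulated as 10% emulsifiable concentrates, diluted in water and sprayed post-emergence at 150 g(a.i.)/ha when corn had 2 to 5 leaves. Each treatment was replicated 4 times on 20 m^2 plots. Barnyard grass control was rated on a 1-9 damage scale.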

[19] = test system: Acalypha australis; assay: Field test for weed control in a corn field; conditions: 150 g a.i./ha, after treatment
Outline: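 Post-emergence field trial in a corn field following GB/T 17980.42-2000. Test compounds were formulated as 10% emulsifiable concentrates, diluted in water, and sprayed at 150 g(a.i.)/ha when corn had 2 to 5 leaves, with 4 replicates on 20 m^2 plots. Mesotrione 25% oil dispersion served as the control agent. Weed control was scored on a 1-9 scale.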

[20] = test system: Solanum nigrum; assay: Field test for weed control in a corn field; conditions: 150 g a.i./ha, 30 days after treatment
Outline: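 Post-emergence weed control was tested in a corn field following GB/T 17980.42-2000. Compounds were made into 10% emulsifiable concentrates, diluted in water and sprayed at 150 g(a.i.)/ha when corn had 2 to 5 leaves after sowing, in 20 m^2 plots with 4 replicates. Effects on Solanum nigrum were graded on a 1-9 scale relative to the blank control area.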

[21] = test system: green bristlegrass; assay: Field test for weed control in a corn field; conditions: 150 g a.i./ha, after treatment
Outline: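 Post-emergence weed control was tested in a corn field following GB/T 17980.42-2000. When the corn had 2 leaves to 5 leaves after sowing, 10% emulsifiable concentrates diluted in water were sprayed at 150 g(a.i.)/ha on 20 m^2 plots, four replicates per treatment. Effects on green bristlegrass were scored on a 1-9 damage scale relative to the blank control area.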

[22] = test system: Portulaca oleracea; assay: Field test for weed control in a corn field; conditions: 150 g a.i./ha, after treatment
Outline: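 Field efficacy trial in corn following GB/T 17980.42-2000. Test compounds were prepared as 10% emulsifiable concentrates, diluted in water, and sprayed at 150 g(a.i.)/ha when corn had 2 to 5 leaves after sowing. Plots were 20 m^2 with 4 replicates per treatment. Herbicidal activity was scored on a 1-9 scale from weed damage symptoms and severity.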

[23] = test system: nutgrass flatsedge; assay: Field test for weed control in a corn field; conditions: 150 g a.i./ha, after treatment
Outline: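 A corn field efficacy trial following GB/T 17980.42-2000 assessed post-emergence control of nutgrass flatsedge. Test compounds were formulated as 10% emulsifiable concentrates, diluted in water, and sprayed at 150 g(a.i.)/ha when the corn had 2 to 5 leaves. Each treatment had 4 replicates on 20 m^2 plots. Herbicidal activity was graded on a 1-9 scale by damage symptoms and severity.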

[24] = test system: Chenopodium album; assay: Field test for weed control in a corn field; conditions: 150 g a.i./ha, after treatment
Outline: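 A corn-field efficacy trial following GB/T 17980.42-2000 tested post-emergence control of Chenopodium album. Test compounds formulated as 10% emulsifiable concentrates were diluted in water and sprayed at 150 g(a.i.)/ha when the corn had 2 leaves to 5 leaves, on 20 m^2 plots with 4 replicates. Herbicidal activity was rated on a 1-9 scale by damage symptoms and severity.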

[25] = test system: goosegrass; assay: Field test for weed control in a corn field; conditions: 150 g a.i./ha, after treatment
Outline: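 Weed control efficacy against goosegrass was tested in a corn field following GB/T 17980.42-2000. Compounds formulated as 10% emulsifiable concentrates were diluted in water and sprayed post-emergence at 150 g(a.i.)/ha when corn had 2 to 5 leaves, with 4 replicates of 20 m^2 plots. Herbicidal activity was rated on a 1-9 scale by damage symptoms and severity.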

[26] = test system: Digitaria sanguinalis; assay: Field test for weed control in a corn field; conditions: 150 g a.i./ha, after treatment
Outline: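 Field trial in a corn field following GB/T 17980.42-2000. Test compounds were formulated as 10% emulsifiable concentrates, diluted in water and sprayed post-emergence at 150 g(a.i.)/ha when corn had 2 to 5 leaves, with 4 replicates on 20 m^2 plots. Control of Digitaria sanguinalis was scored on a 1-9 scale based on weed damage relative to the untreated blank area.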

Structure (SMILES) | Herbicidal Activity Barnyard grass [1] | Herbicidal Activity Piemarker [2] | Herbicidal Activity Green bristlegrass [3] | Herbicidal activity 15 days after treatment Gramineae [4] | Herbicidal activity 30 days after treatment Gramineae [4] | Herbicidal activity 15 days after treatment Cyperaceae [5] | Herbicidal activity 30 days after treatment Cyperaceae [5] | Herbicidal activity 15 days after treatment Broadleaf weed [6] | Herbicidal activity 30 days after treatment Broadleaf weed [6] | Herbicidal Activity Humulus scandens [7] | Herbicidal Activity Amaranthus retroflexus [8] | Herbicidal Activity Digitaria sanguinalis [9] | Herbicidal Activity Amaranthus retroflexus [10] | Herbicidal Activity Humulus scandens [11] | Herbicidal Activity Barnyard grass [12] | Herbicidal Activity Piemarker [13] | Herbicidal Activity Green bristlegrass [14] | Herbicidal Activity Digitaria sanguinalis [15] | Post-emergence weed control effect, Amaranthus retroflexus [16] | Post-emergence weed control effect, Convolvulus arvensis [17] | also measured
Cc1cccc(C(=O)NCc2ccc(F)cc2)c1 [Compound B02] | 1 | 2 (equivalent to 0 to 2.5% of the weed in the blank control area) | 1 | 2 (equivalent to 0 to 2.5% of the weed in the blank control area) | 2 (equivalent to 0 to 2.5% of the weed in the blank control area) | 1 | 1 | 1 | 1 | 2 (equivalent to 0 to 2.5% of the weed in the blank control area) | 1 | 2 (equivalent to 0 to 2.5% of the weed in the blank control area) | 1 | 1 | 1 | 1 | 1 | 1 | 1 | 1 | Post-emergence weed control effect, Barnyard grass [18]: 1; Post-emergence weed control effect, Acalypha australis [19]: 2 (equivalent to 0 to 2.5% of the weed in the blank control area); Post-emergence weed control effect, Solanum nigrum [20]: 2 (equivalent to 0 to 2.5% of the weed in the blank control area); Post-emergence weed control effect, Green bristlegrass [21]: 1; Post-emergence weed control effect, Portulaca oleracea [22]: 1; Post-emergence weed control effect, Nutgrass flatsedge [23]: 2 (equivalent to 0 to 2.5% of the weed in the blank control area); Post-emergence weed control effect, Chenopodium album [24]: 1; Post-emergence weed control effect, Goose grass [25]: 2 (equivalent to 0 to 2.5% of the weed in the blank control area); Post-emergence weed control effect, Digitaria sanguinalis [26]: 2 (equivalent to 0 to 2.5% of the weed in the blank control area)
Cc1ccc(CNC(=O)c2cccc(C)c2)cc1 [Compound B15] | 1 | 1 | 2 (equivalent to 0 to 2.5% of the weed in the blank control area) | 2 (equivalent to 0 to 2.5% of the weed in the blank control area) | 1 | 1 | 2 (equivalent to 0 to 2.5% of the weed in the blank control area) | 1 | 1 | 3 (equivalent to 2.6 to 5% of the weed in the blank control area) | 2 (equivalent to 0 to 2.5% of the weed in the blank control area) | 1 | 1 | 1 | 1 | 1 | 1 | 1 | 1 | 2 (equivalent to 0 to 2.5% of the weed in the blank control area) | Post-emergence weed control effect, Barnyard grass [18]: 1; Post-emergence weed control effect, Acalypha australis [19]: 1; Post-emergence weed control effect, Solanum nigrum [20]: 1; Post-emergence weed control effect, Green bristlegrass [21]: 2 (equivalent to 0 to 2.5% of the weed in the blank control area); Post-emergence weed control effect, Portulaca oleracea [22]: 1; Post-emergence weed control effect, Nutgrass flatsedge [23]: 2 (equivalent to 0 to 2.5% of the weed in the blank control area); Post-emergence weed control effect, Chenopodium album [24]: 1; Post-emergence weed control effect, Goose grass [25]: 2 (equivalent to 0 to 2.5% of the weed in the blank control area); Post-emergence weed control effect, Digitaria sanguinalis [26]: 2 (equivalent to 0 to 2.5% of the weed in the blank control area)
